Patent publication US12466831B2, “Substituted amino triazolopyrimidine and amino triazolopyrazine adenosine receptor antagonists, pharmaceutical compositions and their use” (Merck Sharp & Dohme LLC, priority 2018, dated 2025)

Tests used:
[1] = target: T1, human A2a adenosine receptor (Homo sapiens, UniProt P29274); assay: A2a binding affinity using radioligand binding, Method (A); details: Method (A): [3H]SCH58261 filtration binding, membranes expressing human A2a
T1 construct: purchased Perkin Elmer RBHA2aM400UA; host or cells: HEK293 or CHO cells (recombinant expression)
Excerpt: (§1) Method (A) describes the procedure used to measure A2a binding affinity using radioligand binding. Method (B) describes the procedure used to measure A2a binding affinity using SPA technology. The method used to measure A2b binding affinity is also described below. The method used to determine the A2a IC50 value reported for each compound in the table is indicated next to the reported value. The A2b IC50 value measured using the A2b binding affinity assay is shown in the table next to the compound under the corresponding A2a value.
The A2a receptor affinity binding assay measured the amount of binding of a tritiated ligand with high affinity for the A2a adenosine receptor to membranes made from HEK293 or CHO cells recombinantly expressing the human A2a adenosine receptor, in the presence of varying concentrations of a compound of the invention. The data were generated using either filtration binding or a homogenous scintillation proximity assay (SPA).
Method (A): Measurement of A2a Binding Affinity Using Radioligand Binding
148 μL (5 μg/mL) membranes (Perkin Elmer, Cat. No. RBHA2aM400UA) and 2 μL compounds of the invention to be tested (test compound) were transferred to individual wells of a 96-well polypropylene assay plate and incubated for 15 to 30 minutes at room temperature. [^3H] SCH58261 ((7-(2-phenylethyl)-5-amino-2-(2-furyl)-pyrazolo-[4,3-e]-1,2,4-triazolo[1,5-c]pyrimidine)) was diluted in assay buffer (50 mM Tris pH 7.4, 10 mM MgCl2, 0.005% Tween20) to a concentration of 4 nM and 50 μL transferred to each well of the assay plate. To define total and non-specific binding, wells containing 1% DMSO and 1 μM ZM241385 (Tocris Bioscience, Cat. No. 1036) respectively, were also included. The assay plate was incubated at room temperature for 60 minutes with agitation. Using a FilterMate Harvester® (Perkin Elmer), the contents of the assay plate were filtered through a UniFilter-96® PEI coated plate (Perkin Elmer Cat. No. 6005274 or 6005277). Filtering was achieved by aspirating the contents of the assay plate for 5 seconds, then washing and aspirating the contents three times with ice-cooled wash buffer (50 mM Tris-HCl pH 7.4, 150 mM NaCl) and allowing the vacuum manifold to dry the plate for 30 seconds. The filter plate was incubated for at least 1 hour at 55° C. and allowed to dry. The bottom of the filter plate was sealed with backing tape. 40 μL Ultima Gold™ (Perkin Elmer, Cat. No. 6013329) was added to each well of the filter plate and the top of the plate was sealed with TopSeal-A PLUS® clear plate seal (Perkin Elmer, Cat. No. 6050185). The plate was incubated for at least 20 minutes, and then the amount of radioactivity remaining in each well was determined using a TopCount® (Perkin Elmer) scintillation counter. After normalization to total and non-specific binding, the percent effect at each compound concentration was calculated. The plot of percent effect versus the log of compound concentration was analyzed electronically using a 4-parameter logistic fit based on the Levenberg-Marquardt algorithm to generate IC50 values.

[2] = target: T2, human A2b adenosine receptor (Homo sapiens, UniProt P29275); assay: A2b binding affinity, radioligand filtration binding assay; details: tritiated proprietary A2b antagonist, HEK293 membranes expressing human A2b
T2 construct: purchased Perkin Elmer ES-013-C; host or cells: HEK293 cells recombinantly expressing the receptor; membranes made from them
T2 sequence (P29275 1-332): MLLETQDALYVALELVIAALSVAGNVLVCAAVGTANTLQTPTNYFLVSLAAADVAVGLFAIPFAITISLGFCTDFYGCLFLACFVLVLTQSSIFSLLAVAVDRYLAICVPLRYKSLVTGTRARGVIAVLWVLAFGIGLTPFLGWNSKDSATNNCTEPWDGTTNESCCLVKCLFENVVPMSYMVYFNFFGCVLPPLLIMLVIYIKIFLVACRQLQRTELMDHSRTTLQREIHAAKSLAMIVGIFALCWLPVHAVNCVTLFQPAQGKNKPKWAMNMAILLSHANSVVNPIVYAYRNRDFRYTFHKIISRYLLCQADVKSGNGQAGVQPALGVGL
Excerpt: as §1
Measurement of A2b Binding Affinity
The reported affinity of the compounds of the invention for the human A2b adenosine receptor was determined experimentally using a radioligand filtration binding assay. This assay measures the amount of binding of a tritiated proprietary A2b receptor antagonist, in the presence and absence of a compound of the invention, to membranes made from HEK293 cells recombinantly expressing the human A2b adenosine receptor (Perkin Elmer, Cat. No. ES-013-C).
148 μL (135 μg/mL) membranes and 2 μL test compounds were transferred to individual wells of a 96-well polypropylene assay plate and incubated for 15 to 30 minutes at room temperature with agitation. Tritiated radioligand was diluted to a concentration of 14 nM in assay buffer (phosphate buffered saline without Magnesium and Calcium, pH 7.4; GE Healthcare Life Sciences, Cat. No. SH30256.01) and then 50 μL of the solution were transferred to each well of the assay plate. To define total and non-specific binding, wells containing 1% DMSO and 20 μM N-ethylcarboxamidoadenosine (Tocris Bioscience, Cat. No. 1691) respectively, were also included. The wells of the assay plate were incubated at room temperature for 60 minutes with agitation, then filtered using a FilterMate Harvester® (Perkin Elmer) or similar equipment through a UniFilter-96® PEI coated plate (Perkin Elmer Cat. No. 6005274 or 6005277). Filtering was achieved by aspirating the contents of the assay plate for 5 seconds, then washing and aspirating the contents three times with ice-cooled wash buffer (assay buffer supplemented with 0.0025% Brij58) and allowing the vacuum manifold to dry the plate for 30 seconds. The filter plate was incubated for at least 1 hour at 55° C. and allowed to dry. The bottom of the filter plate was then sealed with backing tape. 40 μL Ultima Gold™ (Perkin Elmer, Cat. No. 6013329) was added to each well of the filter plate and the top of the plate was sealed with TopSeal-A PLUS® clear plate seal (Perkin Elmer, Cat. No. 6050185). The plates were then incubated for at least 20 minutes, and then the amount of radioactivity remaining in each well was determined using a TopCount® (Perkin Elmer) scintillation counter. After normalization to total and non-specific binding, the percent effect at each compound concentration was calculated. The plot of percent effect versus the log of compound concentration was analyzed electronically using a 4-parameter logistic fit based on the Levenberg-Marquardt algorithm to generate IC50 values.

T1 sequence (P29274 whole entry): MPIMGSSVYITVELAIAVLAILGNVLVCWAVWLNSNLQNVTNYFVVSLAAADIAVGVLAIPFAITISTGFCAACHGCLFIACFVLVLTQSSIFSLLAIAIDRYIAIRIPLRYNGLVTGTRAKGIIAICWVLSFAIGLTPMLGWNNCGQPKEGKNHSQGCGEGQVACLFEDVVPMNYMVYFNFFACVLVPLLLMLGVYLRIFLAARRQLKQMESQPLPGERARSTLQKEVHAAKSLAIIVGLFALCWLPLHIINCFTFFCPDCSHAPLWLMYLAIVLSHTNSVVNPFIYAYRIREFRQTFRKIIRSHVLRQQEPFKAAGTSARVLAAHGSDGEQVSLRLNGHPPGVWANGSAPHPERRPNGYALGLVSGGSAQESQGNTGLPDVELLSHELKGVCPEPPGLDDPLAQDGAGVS

SMILES	IC50 [1] [nM]	IC50 [2] [nM]
Cc1c(-c2cccc(F)c2)nc(N)c2nc(C3CCCC(C)(O)C3)nn12 (single isomer, unassigned) [Example 8.10-2, (1R,3S or 1S,3R or 1R,3R or 1S,3S)-1-3-(8-amino-6-(3-fluorophenyl)-5-methyl-[1,2,4]triazolo[1,5-a]pyrazin-2-yl)-1-methylcyclohexan-1-ol]	363	2540
Cc1c(-c2cccc(F)c2)nc(N)c2nc(C3CCCC(C)(O)C3)nn12 (single isomer, unassigned) [Example 8.11-1, (1R,3S or 1S,3R or 1R,3R or 1S,3S)-1-3-(8-amino-6-(3-fluorophenyl)-5-methyl-[1,2,4]triazolo[1,5-a]pyrazin-2-yl)-1-methylcyclohexan-1-ol]	132	≥ 10000
Cc1c(-c2cccc(F)c2)nc(N)c2nc(C3CCCC(C)(O)C3)nn12 (single isomer, unassigned) [Example 8.11-2, (1R,3S or 1S,3R or 1R,3R or 1S,3S)-1-3-(8-amino-6-(3-fluorophenyl)-5-methyl-[1,2,4]triazolo[1,5-a]pyrazin-2-yl)-1-methylcyclohexan-1-ol]	13.5	238
Cc1c(-c2ncco2)nc(N)n2nc([C@@H]3CCCNC3)nc12 [Example 2.3, (R)-8-methyl-7-(oxazol-2-yl)-2-(piperidin-3-yl)-[1,2,4]triazolo[1,5-c]pyrimidin-5-amine]	20.5	1040
Cc1c(-c2cccc(F)c2)nc(N)n2nc([C@@H]3CCCNC3)nc12 [Example 2.4, (R)-7-(3-fluorophenyl)-8-methyl-2-(piperidin-3-yl)-[1,2,4]triazolo[1,5-c]pyrimidin-5-amine]	57.7	873
Cc1c(-c2ncco2)nc(N)c2nc(C3(c4ncccc4F)CC3)nn12 [Example 2.7, 2-(1-(3-fluoropyridin-2-yl)cyclopropyl)-5-methyl-6-(oxazol-2-yl)-[1,2,4]triazolo[1,5-a]pyrazin-8-amine]	56.4	2910
Cc1c(-c2ncco2)nc(N)n2nc([C@H]3C[C@@H](O)C3)nc12 [Example 2.8, (1s,3s)-3-(5-amino-8-methyl-7-(oxazol-2-yl)-[1,2,4]triazolo[1,5-c]pyrimidin-2-yl)cyclobutan-1-ol]	72.9	250
Cc1c(-c2ncco2)nc(N)n2nc([C@@H]3CC[C@H](C)NC3)nc12 [Example 2.9, 8-methyl-2-((3R,6S)-6-methylpiperidin-3-yl)-7-(oxazol-2-yl)-[1,2,4]triazolo[1,5-c]pyrimidin-5-amine]	129	2410
Cc1c(-c2ncco2)nc(N)n2nc([C@@H]3CC[C@H](C)N(c4cnn(CC(C)(C)O)c4)C3)nc12 [Example 2.12, 1-(4-((2S,5R)-5-(5-amino-8-methyl-7-(oxazol-2-yl)-[1,2,4]triazolo[1,5-c]pyrimidin-2-yl)-2-methylpiperidin-1-yl)-1H-pyrazol-1-yl)-2-methylpropan-2-ol]	1	19.8
Cc1c(-c2ncco2)nc(N)n2nc([C@H]3CC[C@@H](C)N(c4cnn(CC(C)(C)O)c4)C3)nc12 [Example 2.13, 1-(4-((2R,5S)-5-(5-amino-8-methyl-7-(oxazol-2-yl)-[1,2,4]triazolo[1,5-c]pyrimidin-2-yl)-2-methylpiperidin-1-yl)-1H-pyrazol-1-yl)-2-methylpropan-2-ol]	47.9	1310
CCn1cc(N2C[C@H](c3nc4c(C)c(-c5ncco5)nc(N)n4n3)CC[C@@H]2C)cn1 [Example 2.14, 2-((3R,6S)-1-(1-ethyl-1H-pyrazol-4-yl)-6-methylpiperidin-3-yl)-8-methyl-7-(oxazol-2-yl)-[1,2,4]triazolo[1,5-c]pyrimidin-5-amine]	1.2	17.6
CCn1cc(N2C[C@@H](c3nc4c(C)c(-c5ncco5)nc(N)n4n3)CC[C@H]2C)cn1 [Example 2.15, 2-((3S,6R)-1-(1-ethyl-1H-pyrazol-4-yl)-6-methylpiperidin-3-yl)-8-methyl-7-(oxazol-2-yl)-[1,2,4]triazolo[1,5-c]pyrimidin-5-amine]	20	2400
CCn1cc(N2C[C@H](c3nc4c(C)c(-c5cccc(F)c5)nc(N)n4n3)CC[C@@H]2C)cn1 [Example 2.16, 2-((3R,6S)-1-(1-ethyl-1H-pyrazol-4-yl)-6-methylpiperidin-3-yl)-7-(3-fluorophenyl)-8-methyl-[1,2,4]triazolo[1,5-c]pyrimidin-5-amine]	8.8	82.6
CCn1cc(N2C[C@@H](c3nc4c(C)c(-c5cccc(F)c5)nc(N)n4n3)CC[C@H]2C)cn1 [Example 2.17, 2-((3S,6R)-1-(1-ethyl-1H-pyrazol-4-yl)-6-methylpiperidin-3-yl)-7-(3-fluorophenyl)-8-methyl-[1,2,4]triazolo[1,5-c]pyrimidin-5-amine]	47.6	2150
CCn1cc(N2CCC[C@@H](c3nc4c(C)c(-c5ncco5)nc(N)n4n3)C2)cn1 [Example 3.3, (R)-2-(1-(1-ethyl-1H-pyrazol-4-yl)piperidin-3-yl)-8-methyl-7-(oxazol-2-yl)-[1,2,4]triazolo[1,5-c]pyrimidin-5-amine]	0.9	155
CNC(=O)C(C)(C)n1cc(N2CCC[C@@H](c3nc4c(C)c(-c5ncco5)nc(N)n4n3)C2)cn1 [Example 3.4, (R)-2-(4-(3-(5-amino-8-methyl-7-(oxazol-2-yl)-[1,2,4]triazolo[1,5-c]pyrimidin-2-yl)piperidin-1-yl)-1H-pyrazol-1-yl)-N,2-dimethylpropanamide]	5.4	85.5
